90 compounds from a melting point compilation (Tetko et al.; mined from patent text by program, amines drawn as free bases though some values may be those of a salt) can be followed below.

The structures appear in SMILES notation. Some results are limits rather than exact numbers.

For `COc1cccc(CCc2cc(C(C)(C)C)c(O)c(C(C)(C)C)c2)c1NC(=O)NC1CCN(Cc2ccccc2)CC1`, the melting point – broadly, the temperature, or range, at which the solid turns liquid – was 184 to 185 °C. With `O=C(O)Cn1ncc(-c2ccccc2)c1-c1ccccc1`, the melting point is 169 to 170 °C. With `COC(=O)c1occc1CN1C(=O)c2ccccc2C1=O` the figure was 140 to 143 °C; with `CCCCCCCCCCS(=O)(=O)N[C@H]1CCCNC(=O)C1`, 98 to 99 °C; with `COCOc1ccc(OCc2ccccc2)c(CBr)c1`, 55 to 57 °C.

`CCCCN(CCCC)c1ccc(C=CC=CC2=C(C#N)C(=C(C#N)C#N)OC2(C)C(F)(F)F)c(OC)c1` (stereo not given) yielded a melting point of 169 to 170 °C. With `O=C(Nc1ccc(OC(F)(F)F)cc1)NC1CCN(C(=O)CN2CCN(Cc3ccccc3)CC2)CC1` the figure was 178 to 183 °C; with `Cn1c2c(c3cc(C#N)ccc31)C(=O)CCC2`, 190 to 192 °C; with `CC1(O)C(CO)OC(n2cnc3c(N)ncnc32)C1(C)O` (stereo not given), 180 °C. For the compound `O=c1[nH]c(=S)c2[nH]cnc2n1Cc1ccccc1`, the melting point was 262 to 263 °C. `CCc1cc2c(OCC(=O)OC)cccc2n1Cc1ccccc1`: the melting point lay within 89 to 92 °C. With `CN1CCCC1=NC(=O)Nc1ccc(Cl)cc1` the figure was 138 to 141 °C; with `Nc1ccc(Oc2ccccc2)c(Cl)c1`, 31 to 33 °C. To `CC1(C)C=Cc2c(O)cc(-c3cc4ccc(O)cc4o3)cc2O1` belongs greater than 250 °C; to `CCC1CS(=O)(=O)c2ccccc2C2(c3ccccc3)OC12` (stereo not given), 185 to 186 °C; to `Cn1ccc(C(=O)c2ccc(Cl)cc2)c1`, 48 to 50 °C.

In turn, `O=C(CSc1ccccn1)C12CC3CC(CC(C3)C1)C2` registered a melting point of 60 to 61 °C. To `O=C(CC[C@H]1CC[C@H](Nc2ncc3ncnc(Nc4ccc(F)c(Cl)c4)c3n2)CC1)N1CCCC1` belongs 187 to 192 °C; to `CSc1cc(-c2ccccc2)nc(-c2cccc(CCl)c2)c1`, 56.8 °C. With `CS(=O)(=O)N1Cc2sccc2C(O)C1` (stereo not given) the figure was 140 °C; with `Nc1ccc(SCc2nc(Cl)ccc2Cl)cc1`, 110 to 111 °C. To `COc1ccc(-c2nc(N)n3nc(-c4ccco4)nc3n2)cc1` belongs greater than 275 °C; to `Nc1nc(NCC2CC2)c2ncn(C3C=CC(CO)C3)c2n1` (stereo not given), 130 to 131 °C. `COc1cc(Cc2cnc(N)nc2NC(C)=O)cc(OC)c1C(C)(C)O`: the melting point is 214 to 216 °C. With `O=C(OCCCCCCCCCCCCBr)C1CC1` the figure was 29 to 31 °C; with `Cc1oc2c(-n3c(=O)cc(C(F)(F)F)n(C)c3=O)ccc(Cl)c2c1C`, 152 to 153 °C. To `CC(C)(C)c1ccc(C(=O)Nc2cn3cc(CO)ccc3n2)cc1` belongs 249 to 250 °C. Regarding `COP(=O)(Cc1ccc(NC(=O)[C@H]2Cc3cc4c(cc3C(=O)[C@H](C)S2)OCO4)cc1)OC`, the melting point is 198 to 199 °C. With `c1ccc(CN2CCN(c3n[nH]c4c3CCc3ccccc3-4)CC2)cc1` the figure was 254 to 256 °C; with `CCC(O)(c1ccc(F)cc1)c1ccc(OCc2cccc(C)n2)cc1` (stereo not given), 103 to 104 °C; with `O=C(NC1CCCCCC1)c1cccc(C(=O)NC2CCCCCC2)c1`, 285 to 286 °C. To `O=C(O)Cc1ccc(-c2ccc(-c3ccccc3)cc2)o1` belongs 196 to 210 °C. With `OC1CCCc2nc3sccc3c(NCc3ccccc3)c21` (stereo not given) the figure was 180 to 181 °C; with `CC=CCOc1cc(OC)cc(C(=O)OC)c1`, 140 to 141 °C; with `CCc1nn(CCO)c(CO)c1Sc1cc(Cl)cc(Cl)c1`, 106 to 108 °C. In turn, `O=CCCNc1[nH]c(-c2ccc(F)cc2)nc1-c1ccccc1` gave a melting point of 201 to 202 °C. With `CCCCc1cc2cc(O)ccc2c(Oc2ccc(/C=C/C(=O)O)cc2)c1-c1ccccc1` the figure was 128 to 130 °C. With `CCOC=C(C=C(C#N)C#N)CCc1ccc(C(=O)OC)cc1` the figure was 136 to 137 °C. To `CCOc1cc(OC)c2cc(C(=O)CN=[N+]=[N-])ccc2n1` belongs 129 to 132 °C; to `C#Cc1ncn2c1CN(C)C(=O)c1cc(F)ccc1-2`, 207 to 208 °C. Turning to `COC(=O)[C@H]1OC(OC(=O)c2ccc(/C=C(\C)c3ccc4c(c3)C(C)(C)CCC4(C)C)cc2)[C@H](OC(C)=O)[C@@H](OC(C)=O)[C@@H]1OC(C)=O` (stereo not given in full), the melting point stood at 161 °C. In turn, `C=COC(=O)N1C[C@@H]2C(=O)CCC(c3cccc(F)c3)(c3cccc(F)c3)[C@@H]2C1` (racemic) returned a melting point of 152 °C. Turning to `CCOCc1nc2c(N)nc3cc(O)ccc3c2n1CC(C)C`, the melting point is greater than 265 °C.

`COc1ccc(CS(=O)(=O)c2cc3c(OC)cc(OC)cc3oc2=O)cc1` returned a melting point of 183 to 185 °C. The compound `O=C(Nc1nccs1)C(CC1CCCC1)c1ccc(F)c(C(F)(F)F)c1` (stereo not given) registered a melting point of 125 to 127 °C. With `CCc1nn2ccccc2c1N(CCCF)C(=O)COC` the figure was 59.9 to 63.9 °C. As for `CC(C)(c1ccccc1)C(n1ccnc1)S(=O)c1ccc(Cl)cc1` (stereo not given), the melting point lay in the range of 125 to 127 °C. For `O=C1CC2(CN1)CC(O)c1cc(Cl)ccc12` (stereo not given), the melting point was 172 to 174 °C.

`NC(=O)NN=Cc1ccc(Oc2ccc3c(c2)CCC3)cc1` gave a melting point of 218 to 220 °C. To `O=CN(CCOc1ccc2ccccc2c1)c1ccc(C(=O)C(=O)O)cc1` belongs 155 to 156 °C; to `Cc1nc(-n2cc(-c3ccccc3)nn2)sc1C(=O)NCc1ccccc1`, 175 to 178 °C; to `CCOC(=O)CCCC1(CCCC(=O)OCC)CC(=O)c2ccc(O)cc2O1`, 108 to 110 °C. With `O=CCCNC(=O)c1cc(Br)c(Br)[nH]1` the figure was 160 to 163 °C.

Turning to `COc1ccc(-c2cc(-c3ccccc3)[nH]c2C(=O)Nc2ccc(C(=O)NO)o2)cc1`, the melting point was in the range of 160 to 162 °C. To `C=CCc1[nH]cc2c1-c1ccc(Cl)cc1C(c1ccccc1F)=NC2` belongs 212 to 214 °C; to `CCN=C1NC(=O)C(OC)(c2nsc3ccc(-n4c(=O)cc(C(F)(F)F)n(C)c4=O)cc23)N1` (stereo not given), 205 °C; to `C[C@@H](O)c1nccc(N2CCN(c3cnc4ccccc4n3)CC2)n1`, 106 to 108 °C.

Turning to `Cc1c(Cl)c(Cl)c(Cl)c(CCl)c1Cl`, the melting point was 88 to 89 °C. Consider `O=C(NCc1cccs1)Nc1cc(N2CC(c3ccccc3)CC2=O)ccn1` (stereo not given), for which the melting point was in the range of 179 to 180 °C. With `CCCOc1ccccc1-c1nc2cc3ncn(CC)c3cc2c(=O)[nH]1`, the melting point fell in the range of 212 to 214 °C.

Regarding `Cc1ccc(-n2nc(C(F)(F)F)cc2-c2ccc(S(C)(=O)=O)c(F)c2)cc1Cl`, the melting point lay in the range of 144 to 145 °C.

`CCCCn1c(=O)c2c(ncn2S(=O)(=O)CCCCl)n(CCCC)c1=O` had a melting point of 71 to 73 °C. With `Cn1cc(C(=O)NCc2ccc(Cl)cc2)c(=O)c2cc(CN3CCOCC3)cc(C#CCn3cnc(Cl)c3Cl)c21` the figure was 178 to 181 °C. To `COc1ccc2cc(C(=O)NC3N=C(c4ccccc4)c4ccccc4-n4c(C)nnc43)[nH]c2c1` (stereo not given) belongs 160 to 170 °C. To `Cc1cc(C2=NN(C3=NCCS3)C(C)Cc3cc4c(cc32)OCO4)ccc1[N+](=O)[O-]` (stereo not given) belongs 130 to 135 °C. With `CCOC(=O)c1c(C(F)(F)F)nc(C(F)F)c(C(=O)OC)c1OC(C)C`, the melting point fell in the range of 29 to 31 °C. Regarding `NC(=O)CN1C(=O)OCc2cc(Br)ccc21`, the melting point was in the range of 253 to 254 °C. For `CN(C)c1cccc([N+](=O)[O-])c1C(=O)NC1CCN(C(c2ccccc2)c2ccccc2)CC1`, the melting point worked out at 122 °C. To `Cc1ccc(Cl)cc1NC(=S)Nc1ccn(C)n1` belongs 217 to 218 °C. To `C=C(Cc1ccccc1)C(=O)NN1CCN(C(=O)OC(C)(C)C)CC1` belongs 160 °C; to `COc1ccc(Nc2cc(=O)n(-c3ccc(Cl)cc3)nc2-c2nc[nH]n2)cc1`, 251 to 252 °C; to `C=CCN(C)C1(C#N)CCC2(CC1)OCCO2`, 47 to 50 °C. To `CN(C)c1ncc(CN2C(=O)C3(COc4cc5c(cc43)OCO5)c3ccccc32)s1` (stereo not given) belongs 200 to 202 °C; to `Cc1nnc2n1-c1ccccc1C(c1ccc(Cl)cc1)=NC2NN(C(=O)NN)c1ccccc1` (stereo not given), 175 to 177 °C; to `COC(=O)c1ccc(CN([C@@H](C)c2ccccc2)S(=O)(=O)c2ccc(Cl)cc2)cc1`, 105 to 106 °C.

`BrCCc1ccc2c(c1)CCC2` yielded a melting point of 57.8 to 58.1 °C. To `Cc1cc2cc(NS(C)(=O)=O)cc(-c3cc(Cl)nc4ccccc34)c2n1CC(=O)O` belongs 195 to 198 °C. To `Oc1nc2cc(Cl)cc(Cl)c2c(O)c1O` belongs 270 to 273 °C; to `O=C1CC(C(F)(F)F)CC(=O)O1`, 88 to 91 °C; to `CCOC(=O)C(=CN1c2ccc(F)c(F)c2OCC1COC)C(=O)OCC` (stereo not given), 81 °C. To `OC1(C2CC2)CSC(=S)N1c1ccccn1` (stereo not given) belongs 95 °C; to `CCCCN(C(=O)c1ccccc1)C1CC(C)(C)N(OC(=O)c2ccccc2)C(C)(C)C1`, 155 to 159 °C; to `COc1nc2cc(Cl)c(Cl)c(-n3c(CN(C)C)nnc3-c3cccnc3)c2nc1OC`, 192 to 194 °C. In turn, `CCn1cc(C(=O)O)c(=O)c2cc(F)c(N3CC(C)(N)C3)cc21` had a melting point of 280 to 283 °C. With `Oc1ccc(-c2nsc3ccccc23)c(Cl)c1Cl` the figure was 224 to 226 °C. To `CCNC(=O)c1ccc(N2CCN(Cc3ccc4c(c3)NC(=O)C(C)O4)CC2)cc1` (stereo not given) belongs 250 to 256 °C; to `O=C(O)Cc1nc(-c2ccc(Cl)cc2)oc1-c1ccoc1`, 218 to 219 °C; to `CCOC(=O)C=Cc1ccc(C(F)(F)F)cc1`, 31 to 32.5 °C.

`COC(=N[N+](=O)[O-])NCc1cnc(Cl)s1` showed a melting point of 133 to 135 °C.

For the compound `O=C(c1cccnc1Cl)N(O)C1CCCCC1`, the melting point was in the range of 151 to 153 °C.
